Experimental findings from patent US20230243856A1, “IDENTIFYING DIRECT ORAL FACTOR XA INHIBITORS” (Instrumentation Laboratory Company, priority 2022, published 2023) are described below.

The assay relates to clotting of a test sample, such as whole blood. The assay can be described thus: low tissue factor clotting assay with a reagent of diluted tissue factor, CaCl2 and polycation heparin inhibitor (polybrene). The class given is biochemical. Conditions: for relationship between TTC and concentration in the sample: range shown between 0 and 500 ng/mL, TTC in seconds; for relationship between TTC and concentration in the sample / concentration in the test sample at a measured clotting time of 400 seconds: FIG. 2 / FIG. 3; for concentration in the test sample at a measured clotting time of 400 seconds: read from plot of TTC versus concentration; for plot of TTC versus concentration with 1 IU UFH or 0 IU UFH in the test sample: test sample with 1 IU unfractionated heparin or no heparin, region 400 / 500 of FIG. 4 / FIG. 5. From the text: The clotting assay uses a reagent to initiate the clotting of a test sample, such as whole blood or a sample derived from whole blood (e.g., plasma). A low tissue factor assay is an example of a clotting assay. […] The low tissue factor assay monitors the clotting of a mixture of the test sample and the reagent and determines clotting parameters based on that clotting. The TTC parameters can be different on different clinical analyzer systems and for different low tissue factor assays. For example, TTC parameter(s) for low tissue factor assays performed using the ROTEM® sigma and the RQTEM® delta systems by Werfen® include clotting time (CT) (where CT is the latency time from adding reagent to sample until the clot starts to form); TTC parameter(s) for low tissue factor assays performed using the TEG® 6s system by Haemonetics® include reaction time (R) and clotting time (CT); and TTC parameter(s) for low tissue factor assays performed using the Quanta® system by the Hemoscnics® system include dot time (CT). An example of the reagent that may be used in the low tissue factor assay (referred to below as “the assay”) to initiate clotting of the test sample includes the following constituents: a diluted tissue factor (“the tissue factor”), calcium chloride (CaCl2), and a heparin inhibitor. The tissue factor activates the extrinsic pathway; the heparin inhibitor reduces or eliminates the sensitivity of the assay to heparin or at least certain concentrations of heparin in the test sample; and CaCl2 recalcifies the sample as required for blood clotting to occur. An example of a type of heparin inhibitor that may be used in the reagent is polycation. An example of a polycation that may be used in the reagent includes, but is not limited to, polybrene. […] In this example, process 100 includes receiving (100a) a test sample having an unknown anti-Xa DOAC at an unknown concentration. The test sample may be received in a diagnostic testing/clinical analyzer system or a manual testing system. The test sample may be any of the types of test samples described herein. The system performs a low tissue factor assay on the test sample. This includes causing the test sample to contact a reagent such as the example reagents described herein. The test sample mixes (100b) with the reagent. The mixing may be performed automatically or manually by physically moving the test sample and the reagent using a mixing element mechanism, e.g., agitation, flow, or the like. The resulting liquid, which is a mixture of the sample and the reagent, begins to clot. The clotting parameters(s), such as TTC, CFT, and/or amplitudes, of clots formed from the liquid may be measured (100c) by the diagnostic testing/clinical analyzer system or manually. The plots of FIGS. 4 to 6, which are described below, are associated with various experiments using the low tissue factor assay and the example reagents described herein containing the tissue factor, CaCl2, and a heparin inhibitor, such as polybrene or other polycation.

With `O=C(NC[C@H]1CN(c2ccc(N3CCOCC3=O)cc2)C(=O)O1)c1ccc(Cl)s1` [rivaroxaban], the “relationship between TTC and concentration in the sample” value was “linear”; the “concentration in the test sample at a measured clotting time of 400 seconds” value is recorded as “about 50 ng/mL”; the “plot of TTC versus concentration with 1 IU UFH or 0 IU UFH in the test sample” value is “substantially linear”.
With `COc1ccc(-n2nc(C(N)=O)c3c2C(=O)N(c2ccc(N4CCCCC4=O)cc2)CC3)cc1` [apixaban], the “relationship between TTC and concentration in the sample” value is given as “linear”; the “concentration in the test sample at a measured clotting time of 400 seconds” value was “about 160 ng/mL”; the “plot of TTC versus concentration with 1 IU UFH or 0 IU UFH in the test sample” value was “substantially linear”.
